pKd: −log10 of the molar value.
Legend:
[1] = target: GDP-bound KRAS wild-type protein (Homo sapiens, UniProt P01116); assay: Binding to KRAS by surface plasmon resonance (SPR), Single Cycle Kinetics; settings: SPR Single Cycle Kinetics, GDP-bound KRAS wild-type protein, 1:1 binding model; read-out: KRAS KD
[2] = target: GDP-bound NRAS wild-type protein (Homo sapiens, UniProt P01111); assay: Binding to NRAS by surface plasmon resonance (SPR), Single Cycle Kinetics; settings: SPR KD ratio NRAS/KRAS, class symbols
GDP-bound NRAS wild-type protein, sequence (P01111 whole entry): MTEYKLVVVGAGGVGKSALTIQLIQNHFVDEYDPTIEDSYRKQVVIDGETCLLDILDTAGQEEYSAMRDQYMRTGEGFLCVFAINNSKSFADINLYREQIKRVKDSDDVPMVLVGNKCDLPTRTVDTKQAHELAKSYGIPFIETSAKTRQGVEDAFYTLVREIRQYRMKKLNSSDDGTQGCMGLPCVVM

[3] = target: GDP-bound HRAS wild-type protein (Homo sapiens, UniProt P01112); assay: Binding to HRAS by surface plasmon resonance (SPR), Single Cycle Kinetics; settings: SPR KD ratio HRAS/KRAS, class symbols
GDP-bound HRAS wild-type protein, sequence (P01112 whole entry): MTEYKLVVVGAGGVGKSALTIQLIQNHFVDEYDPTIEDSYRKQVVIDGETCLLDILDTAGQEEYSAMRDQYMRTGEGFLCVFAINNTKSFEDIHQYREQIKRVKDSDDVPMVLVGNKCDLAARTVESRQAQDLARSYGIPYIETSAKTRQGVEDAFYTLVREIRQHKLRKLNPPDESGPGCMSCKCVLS

GDP-bound KRAS wild-type protein, sequence (P01116 whole entry): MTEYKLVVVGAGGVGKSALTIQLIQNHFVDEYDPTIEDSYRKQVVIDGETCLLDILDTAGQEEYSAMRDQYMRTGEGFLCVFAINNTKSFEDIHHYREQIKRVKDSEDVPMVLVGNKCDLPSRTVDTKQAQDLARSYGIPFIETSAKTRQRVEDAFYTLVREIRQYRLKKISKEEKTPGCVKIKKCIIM

| SMILES | pKd [1] | NRAS/KRAS (ratio of KD value with respect to GDP-bound NRAS wild-type protein to KD value with respect to KRAS) [2] | HRAS/KRAS (ratio of KD value with respect to GDP-bound HRAS wild-type protein to KD value with respect to KRAS) [3] |
| --- | --- | --- | --- |
| CCC(CC)[C@H]1C(=O)N(C)[C@H](C(=O)N(C)C)CC(=O)N(C)[C@@H](COC)C(=O)N[C@@H]([C@@H](C)CC)C(=O)N(C)CC(=O)N(C)[C@H]2C/C=C\CCN(C2=O)[C@@H](Cc2ccc(C)cc2)C(=O)N(C)CC(=O)N[C@@H](CCc2ccc(Cl)c(Cl)c2)C(=O)N2C[C@H](OC3CCCC3)C[C@H]2C(=O)N(C)C2(CC(C)(C)C2)C(=O)N1C [PP2818] | 9.06 | A (a compound having 10 or more and less than 20 is denoted as A) | A (a compound having 10 or more and less than 20 is denoted as A) |
| CCC[C@H]1C(=O)N[C@@H]([C@@H](C)CC)C(=O)N(C2CC2)CC(=O)N(C)[C@H]2C/C=C\CCN(C2=O)[C@@H](Cc2ccc(C(F)(F)F)cc2)C(=O)N(C)CC(=O)N[C@@H](CCc2ccc(Cl)c(Cl)c2)C(=O)N2C[C@H](OCC)C[C@H]2C(=O)NC2(CC(C)(C)C2)C(=O)N(C)[C@@H](CC2CCC2)C(=O)N(C)[C@H](C(=O)N(C)C)CC(=O)N1C [PP2819] | 8.66 | A (a compound having 10 or more and less than 20 is denoted as A) | A (a compound having 10 or more and less than 20 is denoted as A) |
| CCO[C@@H]1C[C@H]2C(=O)NC3(CC(C)(C)C3)C(=O)N(C)[C@@H](CC3CCC3)C(=O)N(C)[C@H](C(=O)N(C)C)CC(=O)N(C)[C@@H](COC)C(=O)N[C@@H]([C@@H](C)CC)C(=O)N(C3CC3)CC(=O)N(C)[C@H]3C/C=C\CCN(C3=O)[C@@H](Cc3ccc(C(F)(F)F)cc3)C(=O)N(C)CC(=O)N[C@@H](CCc3ccc(Cl)c(Cl)c3)C(=O)N2C1 [PP2821] | 8.74 | A (a compound having 10 or more and less than 20 is denoted as A) | A (a compound having 10 or more and less than 20 is denoted as A) |
| CCO[C@@H]1C[C@H]2C(=O)NC3(CC(C)(C)C3)C(=O)N(C)[C@@H](C3CCCC3)C(=O)N(C)[C@H](C(=O)N(C)CC)CC(=O)N(C)[C@@H](CC)C(=O)N[C@@H]([C@@H](C)CC)C(=O)N(C)CC(=O)N(C)[C@H]3C/C=C\CCN(C3=O)[C@@H](Cc3ccc(C(F)(F)F)cc3)C(=O)N(C)CC(=O)N[C@@H](CCc3ccc(Cl)c(Cl)c3)C(=O)N2C1 [PP2822] | 9.59 | A (a compound having 10 or more and less than 20 is denoted as A) | A (a compound having 10 or more and less than 20 is denoted as A) |
| CCO[C@@H]1C[C@H]2C(=O)NC3(CC(C)(C)C3)C(=O)N(C)[C@@H](C3CCCC3)C(=O)N(C)[C@H](C(=O)N(C)CC)CC(=O)N(C)[C@@H](CC)C(=O)N[C@@H]([C@@H](C)CC)C(=O)N(C)CC(=O)N(C)[C@H]3C/C=C\CCN(C3=O)[C@@H](Cc3ccc(C(F)(F)F)cc3)C(=O)N(C)CC(=O)N[C@@H](CCc3ccc(C(F)(F)F)c(Cl)c3)C(=O)N2C1 [PP2823] | 9.89 | A (a compound having 10 or more and less than 20 is denoted as A) | A (a compound having 10 or more and less than 20 is denoted as A) |
| CCO[C@@H]1C[C@H]2C(=O)NC3(CCC3)C(=O)N(C)[C@@H](C3CCCC3)C(=O)N(C)[C@H](C(=O)N(C)CC)CC(=O)N(C)[C@@H](CC3CCC3)C(=O)N[C@@H]([C@@H](C)CC)C(=O)N(C)CC(=O)N(C)[C@H]3C/C=C\CCN(C3=O)[C@@H](Cc3ccc(C(F)(F)F)cc3)C(=O)N(C)CC(=O)N[C@@H](CCc3ccc(C(F)(F)F)c(OC)c3)C(=O)N2C1 [PP2825] | 9.92 | A (a compound having 10 or more and less than 20 is denoted as A) | B (a compound having 3 or more and less than 10 is denoted as B) |
| CCO[C@@H]1C[C@H]2C(=O)NC3(CCC3)C(=O)N(C)[C@@H](C3CCCC3)C(=O)N(C)[C@H](C(=O)N(C)CC)CC(=O)N(C)[C@@H](CC3CCC3)C(=O)N[C@@H]([C@@H](C)CC)C(=O)N(C)CC(=O)N(C)[C@H]3C/C=C\CCN(C3=O)[C@@H](Cc3ccc(C(F)(F)F)cc3)C(=O)N(C)CC(=O)N[C@@H](CCc3ccc(C(F)(F)F)c(Cl)c3)C(=O)N2C1 [PP2826] | 9.85 | A (a compound having 10 or more and less than 20 is denoted as A) | A (a compound having 10 or more and less than 20 is denoted as A) |
| CCO[C@@H]1C[C@H]2C(=O)NC3(CC(C)(C)C3)C(=O)N(C)[C@@H](C3CCCC3)C(=O)N(C)[C@H](C(=O)N(C)CC)CC(=O)N(C)[C@@H](CC(C)C)C(=O)N[C@@H]([C@@H](C)CC)C(=O)N(C)CC(=O)N(C)[C@H]3C/C=C\CCN(C3=O)[C@@H](Cc3ccc(C(F)F)cc3)C(=O)N(C)CC(=O)N[C@@H](CCc3ccc(Cl)c(Cl)c3)C(=O)N2C1 [PP2827] | 9.42 | A (a compound having 10 or more and less than 20 is denoted as A) | B (a compound having 3 or more and less than 10 is denoted as B) |
| CCO[C@@H]1C[C@H]2C(=O)NC3(CC(C)(C)C3)C(=O)N(C)[C@@H](C3CCCC3)C(=O)N(C)[C@H](C(=O)N(C)CC)CC(=O)N(C)[C@@H](CC(C)C)C(=O)N[C@@H]([C@@H](C)CC)C(=O)N(C)CC(=O)N(C)[C@H]3C/C=C\CCN(C3=O)[C@@H](Cc3ccc(C(F)F)cc3)C(=O)N(C)CC(=O)N[C@@H](CCc3ccc(C(F)(F)F)c(OC)c3)C(=O)N2C1 [PP2828] | 9.96 | A (a compound having 10 or more and less than 20 is denoted as A) | A (a compound having 10 or more and less than 20 is denoted as A) |
| CCO[C@@H]1C[C@H]2C(=O)NC3(CC(C)(C)C3)C(=O)N(C)[C@@H](C3CCCC3)C(=O)N(C)[C@H](C(=O)N(C)CC)CC(=O)N(C)[C@@H](CC(C)C)C(=O)N[C@@H]([C@@H](C)CC)C(=O)N(C)CC(=O)N(C)[C@H]3C/C=C\CCN(C3=O)[C@@H](Cc3ccc(C(F)F)cc3)C(=O)N(C)CC(=O)N[C@@H](CCc3ccc(C(F)(F)F)c(Cl)c3)C(=O)N2C1 [PP2829] | 10.02 | A (a compound having 10 or more and less than 20 is denoted as A) | A (a compound having 10 or more and less than 20 is denoted as A) |
| CCCOC[C@H]1C(=O)N[C@@H]([C@@H](C)CC)C(=O)N(C)CC(=O)N(C)[C@H]2C/C=C\CCN(C2=O)[C@@H](Cc2ccc(C(F)(F)F)cc2)C(=O)N(C)CC(=O)N[C@@H](CCc2ccc(C(F)(F)F)c(Cl)c2)C(=O)N2C[C@H](OCC)C[C@H]2C(=O)NC2(CCC2)C(=O)N(C)[C@@H](C2CCCC2)C(=O)N(C)[C@H](C(=O)N(C)CCC)CC(=O)N1C [PP2831] | 9.96 | A (a compound having 10 or more and less than 20 is denoted as A) | A (a compound having 10 or more and less than 20 is denoted as A) |
| CCO[C@@H]1C[C@H]2C(=O)NC3(CC(C)(C)C3)C(=O)N(C)[C@@H](C3CCCC3)C(=O)N(C)[C@H](C(=O)N(C)C)CC(=O)N(C)[C@@H](CC(F)(F)F)C(=O)N[C@@H]([C@@H](C)CC)C(=O)N(C)CC(=O)N(C)[C@H]3C/C=C\CCN(C3=O)[C@@H](Cc3ccc(C(F)(F)F)cc3)C(=O)N(C)CC(=O)N[C@@H](CCc3ccc(Cl)c(Cl)c3)C(=O)N2C1 [PP2832] | 9.74 | A (a compound having 10 or more and less than 20 is denoted as A) | A (a compound having 10 or more and less than 20 is denoted as A) |
| CCO[C@@H]1C[C@H]2C(=O)NC3(CC(C)(C)C3)C(=O)N(C)[C@@H](C3CCCC3)C(=O)N(C)[C@H](C(=O)N(C)C)CC(=O)N(C)[C@@H](CC(F)(F)F)C(=O)N[C@@H]([C@@H](C)CC)C(=O)N(C)CC(=O)N(C)[C@H]3C/C=C\CCN(C3=O)[C@@H](Cc3ccc(C(F)(F)F)cc3)C(=O)N(C)CC(=O)N[C@@H](CCc3ccc(C(F)(F)F)c(Cl)c3)C(=O)N2C1 [PP2833] | 10.28 | A (a compound having 10 or more and less than 20 is denoted as A) | A (a compound having 10 or more and less than 20 is denoted as A) |
| CCO[C@@H]1C[C@H]2C(=O)NC3(CC(C)(C)C3)C(=O)N(C)[C@@H](C3CCCC3)C(=O)N(C)[C@H](C(=O)N(C)CC)CC(=O)N(C)[C@@H](COC)C(=O)N[C@@H]([C@@H](C)CC)C(=O)N(C)CC(=O)N(C)[C@H]3C/C=C\CCN(C3=O)[C@@H](Cc3ccc(C(F)(F)F)cc3)C(=O)N(C)CC(=O)N[C@@H](CCc3ccc(Cl)c(Cl)c3)C(=O)N2C1 [PP2835] | 9.72 | A (a compound having 10 or more and less than 20 is denoted as A) | A (a compound having 10 or more and less than 20 is denoted as A) |
